We go through 16 molecules from patent US20080171706A1, “Anti-Adhesive Compounds to Prevent and Treat Bacterial Infections” (priority 2004, published 2008).

pKd: −log10 of the molar value. Like-named read-outs stand apart in the source and are kept apart here.

Common to all, as to assay: biochemical
For assay [1], the target named is T1, FimHtrCl#4 (Escherichia coli, UniProt P08191, G94E/N91S/S99N/V48A).
T1 construct: coding for the lectin domain of FimH (residues 1-158) with a C-terminal 6-histidine tag; made in house; host or cells: E. coli HB101 (lacking the fim operon), periplasmic extract, plasmid pMAS146
T1 sequence (P08191 22-179 V48A/N91S/G94E/S99N): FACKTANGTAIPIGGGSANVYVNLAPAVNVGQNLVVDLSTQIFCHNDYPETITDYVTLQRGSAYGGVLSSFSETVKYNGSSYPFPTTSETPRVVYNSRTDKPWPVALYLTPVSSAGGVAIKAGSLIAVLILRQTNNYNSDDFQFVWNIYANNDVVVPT
The assay is classed as binding, E. coli UPEC (Cl#4) strain. As to conditions: for pKd: Table 3, [3H]-mannose displacement assay (mannose measured directly), read-out: KD CI#4; for ΔG° CI#4: Table 3, calculated from KD. The procedure:
(§1) To investigate if these variations reflect differences in sugar binding at the molecular level, the dissociation constants of a series of mannosides for the FimH lectin domain from a fecal (F18) and from a UPEC (Cl#4) strain were determined. […] For comparison, binding to FimHtrJ96 was also investigated. Both F18 and Cl#4 FimH lectin domains were cloned, expressed, and purified in the same way as FimHtrJ96 (Schembri et al., 2000). These two lectin domains differ from the lectin domain of FimHJ96 by substitutions Val27Ala, Asn70Ser and Ser78Asn. In addition, FimHCl#4 differs from the other two variants by a Gly73Glu substitution. […] Five different tri-mannosides corresponding to high-mannose substructures were synthesized, and their binding to FimHtrJ96, FimHtrF18 and FimHtrCl#4 measured using our [^3H]-mannose displacement assay (Table 3). Alpha-D-mannose binding was first directly measured for each of the FimH variants.
(§2) [^3H]alpha-D-mannose was obtained from Amersham. […] Syntheses of tri-mannosides was as reported earlier by Oscarson and co-workers (1993). Weighed amounts of tri-mannosides were dissolved in double distilled water to give stock solutions of 0.87 M man-(1,2)-man-(1,2)-man, 0.25 M man-(1,2)-man-(1,3)-man, 0.27 M man-(1,2)-man-(1,6)-man, 0.30 M man-(1,3)-man-(1,6)-man, 0.13 M man-(1,6)-man-(1,6)-man. Similarly, alkyl mannosides were dissolved in double distilled water to give stock solutions of 100 mM methyl mannoside, 59.8 mM ethyl mannoside, 45.9 mM propyl mannoside, 51.9 mM butyl mannoside, 17.3 mM pentyl mannoside, 20.8 mM hexyl mannoside, 15.3 mM heptyl mannoside, 15.2 mM octyl mannoside. pNPalphaMan and MeUmbalphaMan (6 mg each) were dissolved in 20 μl DMSO and diluted to 20 mM using double distilled water. Binding experiments were performed using six different concentrations of [^3H]-alpha-D-mannose (final concentrations 43.5 μM, 29.0 μM, 19.3 μM, 12.9 μM, 8.6 μM, 5.7 μM). FimHtrJ96 obtained by growing bacteria in minimal medium was used in all binding experiments. 180 μl protein at a concentration of about 500 nM was mixed with 20 μl of the radioactive ligand, and incubated at 37° C. for 20 min. To separate free ligand from bound, the mixture was rapidly filtrated through a Protran BA 85 Cellulose-nitrate filter (Schleicher & Schuell, Dassel, Germany), and washed once with 1 ml of ice-cold 1× PBS (phosphate buffered saline). Filter-bound radioactivity was measured by scintillation spectrometry within 24 hours. The displacement experiments were performed using six different concentrations (final concentrations in the range 0.0˜43.5 μM) of the inhibitor, in the presence of 43.5 μM [^3H]-alpha-D-mannose. 20 μl radioactive ligand, 20 μl inhibitor at decreasing concentrations, and 160 μl protein (500 nM) were mixed, and the experiments performed as above. All experiments were performed in duplicates. For determination of KD for α-D-mannose, a hyperbolic curve (y=P1x/(P2+x), where P2=KD) was fitted to the data. For the displacement experiments, the curve y=P1/(P2+x), where P2 is the concentration of the inhibitor displacing 50% of the labelled ligand, [I]0.5 was used instead. To calculate the inhibitor dissociation constant (KI) the Cheng & Prusoff equation (KI=[I]0.5/([L]/KL+1); KL is the constant of dissociation for the ligand) (Cheng and Prusoff, 1973), was used when both the concentration of the radioactive ligand (L) and the displacing agent (I) are in excess over the protein (LT>>PT;IT>>PT, T indicates total concentration). […] A plot of IT/((1−Y)*(LT/KL)−Y) against 1/Y gives a straight line with a slope of KI.

Assay [2] deals with T2, FimHtrJ96 (Escherichia coli, UniProt P08191).
T2 construct: coding for the lectin domain of FimH (residues 1-158) with a C-terminal 6-histidine tag; made in house; host or cells: E. coli HB101 (lacking the fim operon), periplasmic extract, plasmid pPKL241
T2 sequence (P08191 22-179): as the sequence (P08191 22-179 V48A/N91S/G94E/S99N) above, with A27V, S70N, E73G, N78S counted along it
The assay is classed as binding, uropathogenic E. coli strain J96. As to conditions: for ΔG° J96: Table 3, calculated from KD. The procedure:
To measure the dissociation constant for FimH:alkyl or aryl-mannoside binding, two different binding assays were developed. The first binding assay uses [^3H]-mannose. The amount of radioactively labeled mannose bound to FimHtrJ96 was measured at six different concentrations of [^3H]-mannose, and a hyperbolic curve fitted to the resulting data (FIG. 1A). FimHtrJ96 corresponds to the carbohydrate (mannose) binding domain of FimH from the uropathogenic E. coli strain J96. The dissociation equilibrium constant was determined from this graph at the concentration of mannose […], which corresponds to occupation of half of the binding sites.
Surface Plasmon Resonance measurements were performed on a Biacore3000™. In a first experiment, the kinetic constants and maximal binding were determined for the FimH-antibody interaction. Next, a fixed concentration of FimH (close to the KD of the FimH-antibody interaction) in combination with varying concentrations of carbohydrate, were used to determine the dissociation equilibrium constant of the FimH-saccharide interaction in a competition experiment. Every measurement was repeated at least twice, including testing the variation between different protein and saccharide batches.
To eliminate the possibility of different binding strength for full length FimH and FimHtrJ96, the binding of alpha-D-mannose to FimC:FimH complex was also measured. […] The inhibition of [^3H]-mannose binding was used in a displacement assay to determine the dissociation constant for a synthetic butyl mannoside by measuring the amount of [^3H]-mannose bound to the protein in the presence of increasing amounts of the inhibitor (FIG. 1B). […] To investigate the effect of sequential addition of methyl groups to the O1 oxygen of D-mannose, a series of alkyl mannosides were synthesized and the dissociation constants determined using the [^3H]-mannose displacement assay and by surface plasmon resonance (Table 1).
Surface Plasmon Resonance measurements were performed on a Biacore3000™. The Fab fragments of a monoclonal antibody against FimH were covalently immobilised via lysines at 1000 Resonance Units (1000 pg ligand/mm^2) in flowcell Fc2 on a CM5 biasensor chip (BIAapplications Handbook, Biacore AB, Uppsala, Sweden). Immobilisation buffer was 100 mM NaAc pH 5.0 with 100 mM NaCl. The reference flowcell Fc1 was left blank.
Binding of FimH to the immobilized antibody was measured with a Biacore 3000 instrument in running buffer (phosphate buffered saline with 0.005% surfactant P20 and 3 mM EDTA), on both flowcells Fc1 and Fc2 simultaneously, at a flow rate of 30 μl/min and at 25° C. Complete dissociation of FimH was done with running buffer before starting a new binding cycle. For all measurements, the association time was 3 minutes, the dissociation time was 30 min. All binding cycles were performed in duplicate, including a zero concentration cycle of FimH (injection of running buffer).
In a first experiment, the kinetic constants, ka and kd, and the maximal binding Rmax, were determined for the FimH-antibody interaction (FimH concentrations (nM): 2000, 1000, 500, 250, 125, 62.5, 31.25, 15.625, 7.818, 3.911, 1.957, 0). All analyses were performed with the BIAeval software. A Langmuir binding isotherm with a 1:1 stoichiometry was fitted to the data, from which the kinetic constants and maximal binding were obtained.
In the next experiment, samples containing a fixed concentration of FimH (close to the KD of the FimH-antibody interaction) in combination with varying concentrations of saccharide, were used to determine the dissociation constant of the FimH-saccharide interaction in a competition experiment. First, ten-fold dilutions of the saccharide solution were used to determine the concentration range for binding of the saccharide to FimH.

Assay [3] concerns the target T3, FimHtrF18 (Escherichia coli, UniProt P08191, N91S/S99N/V48A).
T3 construct: coding for the lectin domain of FimH (residues 1-158) with a C-terminal 6-histidine tag; made in house; host or cells: E. coli HB101 (lacking the fim operon), periplasmic extract, plasmid pPKL316
The assay is classed as binding, E. coli fecal (F18) strain. To be noted: for pKd: Table 3, [3H]-mannose displacement assay (mannose measured directly), read-out: KD F18; for ΔG° F18: Table 3, calculated from KD. On the procedure:
as §1, §2

[4] abbreviates: Table 3, [3H]-mannose displacement assay (mannose measured directly), read-out: KD J96.
Where [5] appears, read: displacement assay, FimHtrJ96, read-out: KD.
Where [6] appears, read: quoted in b67 for comparison with docking, method not given, read-out: experimentally determined dissociation constant Kd.

T3 sequence (P08191 22-179 V48A/N91S/S99N): as the sequence (P08191 22-179 V48A/N91S/G94E/S99N) above, with E73G counted along it

Consider `OC[C@H]1O[C@H](O[C@@H]2[C@H](O)[C@@H](OC[C@H]3OC(O)[C@@H](O)[C@@H](O)[C@@H]3O)O[C@H](CO)[C@H]2O)[C@@H](O)[C@@H](O)[C@@H]1O` (stereo partly shown) [man-(1,3)-man-(1,6)-man], for which, in assay [1], the pKd is 5.99 and the “ΔG° CI#4” value was -8.5 kcal/mol. Besides, the pKd in assay [2] (setting [4]) is 6.31. For the same molecule, the “ΔG° J96” value in assay [2] is -8.6 kcal/mol. In assay [3], the pKd is 6.14 and the “ΔG° F18” value was -8.7 kcal/mol.

Consider `CCCCCO[C@H]1O[C@H](CO)[C@@H](O)[C@H](O)[C@@H]1O` [Pentyl man, pentyl mannoside], for which the pKd in assay [2] was 7.60. Besides, the “ΔG°” value in assay [2] (Table 1, calculated from KD) is -10.4 kcal/mol.

In the case of `O=C[C@H](O)[C@@H](O)[C@@H](O)[C@H](O)CO` [galactose], the pKd in assay [2] is 1.00. In addition, the “ΔG°” value in assay [2] (Table 2, calculated from KD) is -1.4 kcal/mol.

In the case of `OC[C@H]1O[C@H](O[C@@H]2[C@@H](O[C@H]3[C@H](O)[C@@H](CO)OC(O)[C@H]3O)O[C@H](CO)[C@@H](O)[C@@H]2O)[C@@H](O)[C@@H](O)[C@@H]1O` (stereo partly shown) [man-(1,2)-man-(1,3)-man], in assay [1], the pKd is 5.44 and the “ΔG° CI#4” value is -7.7 kcal/mol. Besides, in assay [2] (setting [4]), the pKd is 5.74. Besides, the “ΔG° J96” value in assay [2] was -8.1 kcal/mol. In addition, in assay [3], the pKd is 5.52 and the “ΔG° F18” value was -7.8 kcal/mol.

In the case of `CCO[C@H]1O[C@H](CO)[C@@H](O)[C@H](O)[C@@H]1O` [Ethyl man, ethyl mannoside], the pKd in assay [2] was 5.92. The “ΔG°” value in assay [2] (Table 1, calculated from KD) was -8.1 kcal/mol.

Consider `OC[C@H]1O[C@H](O)C[C@@H](O)[C@@H]1O` [2-deoxy α-D-mannose], for which the pKd in assay [2] was 3.52. In assay [2] (Table 2, calculated from KD), the “ΔG°” value was -4.8 kcal/mol.

`O=[N+]([O-])c1ccc(OC2O[C@H](CO)[C@@H](O)[C@H](O)[C@@H]2O)cc1` (stereo partly drawn) [p-Nitrophenyl man, p-Nitrophenyl α-mannoside]: the “ΔG°” value in assay [2] (Table 1, calculated from KD) was -10.3 kcal/mol. Further, the pKd was 7.59 in assay [2] (setting [5]) and 7.36 in assay [2] (setting [6]).

As for `Cc1cc(=O)oc2cc(O[C@H]3O[C@H](CO)[C@@H](O)[C@H](O)[C@@H]3O)ccc12` [Umbelliferyl man, 4-Methylumbelliferyl α-mannoside], in assay [2] (Table 1, calculated from KD), the “ΔG°” value is -10.8 kcal/mol. Moreover, the results for the pKd in assay [2] (setting [5]) and in assay [2] (setting [6]) were 7.92 and 7.70, respectively.

Consider `CCCCO[C@H]1O[C@H](CO)[C@@H](O)[C@H](O)[C@@H]1O` [Butyl man, butyl mannoside], for which the negative logarithm of the Kd (pKd) in assay [2] (Table 1, O1 alkyl and aryl mannosides, SPR and displacement binding experiments, read-out: KD) was 6.82; in assay [2] ([3H]-mannose binding or displacement assay, FimHtrJ96, read-out: KD), 6.82. For the same molecule, in assay [2] (Table 1, calculated from KD), the “ΔG°” value is -9.3 kcal/mol. For the same molecule, the “binding strength relative to D-mannose (times stronger)” value in assay [2] (butyl mannoside vs D-mannose, displacement assay) is “around 15 times”.

On to `O=C(CO)[C@@H](O)[C@H](O)[C@H](O)CO` [fructose], for which, in assay [2], the negative logarithm of the Kd (pKd) is 4.51. In addition, in assay [2] (Table 2, calculated from KD), the “ΔG°” value was -6.1 kcal/mol. Also, in assay [2] (fructose vs mannose, FimH), the “affinity relative to mannose (times lower)” value stood at 15 times.

For the molecule `CCCO[C@H]1O[C@H](CO)[C@@H](O)[C@H](O)[C@@H]1O` [Propyl man, propyl mannoside], the pKd in assay [2] was 6.52. Also, the “ΔG°” value in assay [2] (Table 1, calculated from KD) is -8.9 kcal/mol.

For the molecule `OC[C@H]1O[C@@](CO)(O[C@H]2O[C@H](CO)[C@@H](O)[C@H](O)[C@H]2O)[C@@H](O)[C@@H]1O` [sucrose], the pKd in assay [2] is 1.89. The “ΔG°” value in assay [2] (Table 2, calculated from KD) is -2.6 kcal/mol.

As to `CCCCCCO[C@H]1O[C@H](CO)[C@@H](O)[C@H](O)[C@@H]1O` [Hexyl man, hexyl mannoside], the pKd in assay [2] is 8.00. Further, the “ΔG°” value in assay [2] (Table 1, calculated from KD) was -10.9 kcal/mol.

As for `CCCCCCCO[C@H]1O[C@H](CO)[C@@H](O)[C@H](O)[C@@H]1O` [Heptyl man, heptyl α-D-mannopyranoside], the pKd in assay [2] is 8.30. Further, the ranking of binders entry in assay [2] (SPR and displacement binding experiments, Table 1 series) is recorded as “best binder”. The “ΔG°” value in assay [2] (Table 1, calculated from KD) is -11.3 kcal/mol.

`CO[C@H]1O[C@H](CO)[C@@H](O)[C@H](O)[C@@H]1O` [Methyl man, Methyl mannoside]: in assay [2], the pKd was 5.66. In addition, the “ΔG°” value in assay [2] (Table 1, calculated from KD) is -7.7 kcal/mol.

As for `CCCCCCCCO[C@H]1O[C@H](CO)[C@@H](O)[C@H](O)[C@@H]1O` [Octyl man, octyl mannoside], the pKd in assay [2] is 7.66. Also, the “ΔG°” value in assay [2] (Table 1, calculated from KD) is -10.4 kcal/mol.
